Assay results published in patent publication US11072581B2, “N-acyl-arylsulfonamide derivatives as aminoacyl-tRNA synthetase inhibitors” (Oxford Drug Design Limited, priority 2015, dated 2021).
Read-outs that look alike come from different tables or passages of the source.

Assays:
[1] = molecular target: T1, EcoLRS (leucyl-tRNA synthetase from Escherichia coli) (Escherichia coli, UniProt P07813); test: aaRS aminoacylation assay (ATP consumption), EcoLRS; assay type: biochemical
T1 construct: made in house; host or cells: Escherichia coli M15
Procedure: (§1) The compounds have been tested for antibacterial activity in vitro as aminoacyl-tRNA synthetases (aaRS) inhibitors following the following process.
(§2) Leucyl-, valyl- and isoleucyl-tRNA synthetases (LRS, VRS and IRS, respectively) from Escherichia coli (Eco) and Staphylococcus aureus (Sau).
(§3) Escherichia coli M15 cells transformed with plasmid pQE-60, or pQE-70, containing the open-reading frame sequence of one targeted aaRS were induced with 1 mM IPTG (Isopropyl β-D-1-thiogalactopyranoside) for 3 h at 37° C. Bacterial cells were harvested and lysed with 20 mM NaH2PO4 (pH 8.0), 200 mM NaCl, 10 mM imidazole and protease inhibitor cocktail (Roche). Pathogenic aaRS was purified by nickel affinity standard chromatography. Protein concentration was determined by spectrophotometry.
(§4) tRNA^Leu, tRNA^Val and tRNA^Ile from E. coli and S. aureus were transcribed in vitro for 4 h at 37° C. using T7 RNA polymerase. Transcription reaction contained 40 mM Tris-HCl (pH 8.0), 22 mM MgCl2, 1 mM spermidine, 5 mM DTT, 0.01% Triton X-100, 4 mM GTP, 4 mM ATP, 4 mM UTP, 4 mM CTP, 16 mM GMP, […] T7 RNA polymerase and 150 μg BstNI digested plasmid. Once finished, the reaction was applied on a 6% polyacrylamide-8 M urea denaturing gel to purify the transcribed tRNA and discard any impurities. Purified tRNA was quantified with Nanodrop 2000 (Thermo Scientific).
(§5) The aminoacylation reaction catalyzed by aminoacyl-tRNA synthetases (aaRS) takes place in two steps. In the first step, aaRS activates its cognate amino acid with ATP; and in the second step the activated amino acid is loaded to its corresponding tRNA. This reaction can be summarized as follows: ARS+aa+ATP=ARS-aa-AMP+PPi ARS-aa-AMP+tRNA=aa-tRNA+AMP+ARS [2] (ARS, Aminoacyl-tRNA synthetase; aa, amino acid; ARS-aa-AMP, enzyme-bound to aminoacyl-adenylate; aa-tRNA, aminoacyl-tRNA).
(§6) The activity of the pathogenic aaRSs was monitored by measuring the ATP consumption rate, since this consumption is directly proportional to the activity of the aaRS. If the tested compound, at a single point concentration of 50 μM, is inhibiting the aminoacylation reaction, there is a decrease in the ATP consumption, compared to the control reaction without compound, allowing the calculation of an inhibition ratio.
(§7) When the inhibition ratio for a given compound was above 80%, IC50 determination was performed with the same enzymatic assay (using the commercial kit Kinase RR from BioThema AB, Sweden) in the presence of serial dilutions of inhibitor. Known inhibitors of LRS, VRS or IRS were used as a positive control of the assay. The IC50 was calculated based on nonlinear regression analysis.

[2] = molecular target: T2, SauLRS (leucyl-tRNA synthetase from Staphylococcus aureus) (Staphylococcus aureus, UniProt Q2FXH2); test: aaRS aminoacylation assay (ATP consumption), SauLRS; assay type: biochemical
T2 construct: made in house; host or cells: Escherichia coli M15
T2 sequence (Q2FXH2 1-805): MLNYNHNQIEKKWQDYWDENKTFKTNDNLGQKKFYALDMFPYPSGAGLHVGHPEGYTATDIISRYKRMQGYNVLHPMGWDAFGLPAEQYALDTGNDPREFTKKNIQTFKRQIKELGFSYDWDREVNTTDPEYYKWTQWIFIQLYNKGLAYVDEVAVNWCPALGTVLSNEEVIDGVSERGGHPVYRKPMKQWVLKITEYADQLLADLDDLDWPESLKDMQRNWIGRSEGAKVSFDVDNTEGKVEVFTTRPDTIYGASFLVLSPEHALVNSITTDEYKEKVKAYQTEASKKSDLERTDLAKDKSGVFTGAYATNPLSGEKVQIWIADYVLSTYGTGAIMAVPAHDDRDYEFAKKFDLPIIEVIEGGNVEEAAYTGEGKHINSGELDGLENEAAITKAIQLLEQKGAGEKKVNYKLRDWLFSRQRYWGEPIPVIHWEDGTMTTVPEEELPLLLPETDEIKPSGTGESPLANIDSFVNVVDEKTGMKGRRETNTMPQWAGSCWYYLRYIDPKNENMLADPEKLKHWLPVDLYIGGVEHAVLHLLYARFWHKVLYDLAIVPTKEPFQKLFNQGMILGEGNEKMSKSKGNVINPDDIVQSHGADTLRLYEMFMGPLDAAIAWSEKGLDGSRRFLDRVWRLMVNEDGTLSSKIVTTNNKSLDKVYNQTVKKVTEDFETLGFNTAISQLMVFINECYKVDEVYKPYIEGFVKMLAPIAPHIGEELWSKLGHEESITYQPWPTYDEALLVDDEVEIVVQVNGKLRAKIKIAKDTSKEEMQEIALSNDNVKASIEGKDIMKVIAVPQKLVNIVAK
Procedure: as §1, §2, §3, §4, §5, §6, §7

[3] = molecular target: T3, EcoVRS (valyl-tRNA synthetase from Escherichia coli) (Escherichia coli, UniProt P07118); test: aaRS aminoacylation assay (ATP consumption), EcoVRS; assay type: biochemical; settings: i.a. = inactive at a concentration below 50 uM
T3 construct: made in house; host or cells: Escherichia coli M15
Procedure: as §1, §2, §3, §4, §5, §6, §7

[4] = i.a. = inactive at a concentration below 50 uM
[5] = i.a. = inactive at a concentration below 50 uM, read-out: IC50 SauLRS
[6] = i.a. = inactive at a concentration below 50 uM, read-out: IC50 EcoLRS

T1 sequence (P07813 whole entry): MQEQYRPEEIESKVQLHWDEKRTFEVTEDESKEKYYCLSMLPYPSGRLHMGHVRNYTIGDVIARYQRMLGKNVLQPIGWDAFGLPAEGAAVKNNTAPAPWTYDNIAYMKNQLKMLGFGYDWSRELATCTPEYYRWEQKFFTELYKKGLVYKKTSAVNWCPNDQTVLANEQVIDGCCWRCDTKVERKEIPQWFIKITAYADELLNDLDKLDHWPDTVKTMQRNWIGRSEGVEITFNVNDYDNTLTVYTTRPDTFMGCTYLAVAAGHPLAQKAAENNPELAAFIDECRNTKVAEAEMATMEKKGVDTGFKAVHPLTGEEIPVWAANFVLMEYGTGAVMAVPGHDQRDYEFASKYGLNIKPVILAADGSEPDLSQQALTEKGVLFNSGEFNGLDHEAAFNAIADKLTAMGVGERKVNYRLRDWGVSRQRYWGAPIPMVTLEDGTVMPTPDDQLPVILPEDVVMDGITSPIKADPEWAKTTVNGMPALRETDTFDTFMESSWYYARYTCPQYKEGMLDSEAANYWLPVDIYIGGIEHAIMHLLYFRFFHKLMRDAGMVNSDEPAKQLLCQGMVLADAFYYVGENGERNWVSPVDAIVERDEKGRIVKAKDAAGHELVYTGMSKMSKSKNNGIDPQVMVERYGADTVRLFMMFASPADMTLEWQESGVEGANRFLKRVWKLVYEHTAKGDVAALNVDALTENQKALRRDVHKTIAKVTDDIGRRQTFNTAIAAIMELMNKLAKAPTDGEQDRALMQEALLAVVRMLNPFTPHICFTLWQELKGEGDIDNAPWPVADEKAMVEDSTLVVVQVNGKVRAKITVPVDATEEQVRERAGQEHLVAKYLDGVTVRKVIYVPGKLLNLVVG
T3 sequence (P07118 whole entry): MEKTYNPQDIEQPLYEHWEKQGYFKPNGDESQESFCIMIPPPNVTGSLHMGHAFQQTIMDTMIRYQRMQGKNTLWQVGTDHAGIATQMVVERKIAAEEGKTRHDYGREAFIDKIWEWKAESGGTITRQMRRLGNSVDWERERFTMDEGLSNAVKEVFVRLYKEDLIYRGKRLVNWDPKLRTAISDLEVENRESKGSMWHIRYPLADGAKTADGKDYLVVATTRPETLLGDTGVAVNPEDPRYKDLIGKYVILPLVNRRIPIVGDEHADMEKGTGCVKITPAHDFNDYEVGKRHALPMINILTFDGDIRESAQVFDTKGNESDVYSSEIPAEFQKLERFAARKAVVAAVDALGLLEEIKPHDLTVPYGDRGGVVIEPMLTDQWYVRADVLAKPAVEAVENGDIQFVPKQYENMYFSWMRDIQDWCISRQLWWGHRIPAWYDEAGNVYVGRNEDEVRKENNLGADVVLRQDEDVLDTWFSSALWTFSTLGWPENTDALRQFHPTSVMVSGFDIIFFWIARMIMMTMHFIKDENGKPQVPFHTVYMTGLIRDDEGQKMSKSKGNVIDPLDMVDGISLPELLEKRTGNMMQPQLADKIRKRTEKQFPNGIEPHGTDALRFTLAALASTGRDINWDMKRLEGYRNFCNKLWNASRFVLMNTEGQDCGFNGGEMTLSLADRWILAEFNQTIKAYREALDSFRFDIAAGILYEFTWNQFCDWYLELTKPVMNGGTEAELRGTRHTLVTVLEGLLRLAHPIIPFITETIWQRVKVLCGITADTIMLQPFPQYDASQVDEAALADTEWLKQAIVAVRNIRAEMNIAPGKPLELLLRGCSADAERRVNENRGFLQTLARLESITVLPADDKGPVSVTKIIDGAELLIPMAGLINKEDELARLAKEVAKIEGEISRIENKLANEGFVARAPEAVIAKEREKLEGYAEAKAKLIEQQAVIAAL

| Compound | IC50 [1] | IC50 SauLRS [2, 4] | IC50 EcoVRS [3] | melting point | IC50 [2, 5] | IC50 [1, 6] | IC50 EcoLRS [1, 4] | % at single point concentration (inhibition ratio), EcoLRS ([1]; @50 μM compound) | IC50 [2] |
| --- | --- | --- | --- | --- | --- | --- | --- | --- | --- |
| N[C@@H](CC1CC1)C(=O)NS(=O)(=O)c1cccc(-c2ccccc2)c1 (racemic) [Compound 5.10] | 47600 nM | i.a | i.a | 214.4 °C |  |  |  |  |  |
| CC(C)C[C@H](N)C(=O)NS(=O)(=O)c1ccc(Oc2ccccc2)cc1 [Compound 5.2] | 713 nM |  | i.a | 224 to 225 °C | 16300 nM |  |  |  |  |
| CC(C)C[C@H](N)C(=O)NS(=O)(=O)c1ccccc1-c1ccccc1 [Compound 5.3] | 159 nM |  | i.a | 143 °C (dec.) | 14800 nM |  |  |  |  |
| CC(C)C[C@H](N)C(=O)NS(=O)(=O)c1cccc(-c2ccccc2)c1 [Compound 5.9] |  |  | i.a | 149 °C (dec.) | 650 nM | 32 nM |  |  |  |
| CC(C)C[C@H](N)C(=O)NS(=O)(=O)c1ccc(-c2ccccc2)cc1 [Compound 5.11] | 27600 nM |  | i.a | 212 °C (dec.) | 11300 nM |  |  |  |  |
| CC(C)C[C@H](N)C(=O)NS(=O)(=O)c1c(C(C)C)cc(C(C)C)cc1C(C)C [Compound 5.12] | 32700 nM | i.a | i.a | 217 °C |  |  |  |  |  |
| CC(C)C[C@H](N)C(=O)NS(=O)(=O)c1ccc2ccccc2c1 [Compound 5.14] |  |  | i.a | 215 °C (dec.) | 1000 nM | 65 nM |  |  |  |
| CC[C@H](C)[C@H](N)C(=O)NS(=O)(=O)c1ccc2ccccc2c1 [Compound 5.15] |  | i.a | i.a | 229.7 °C |  |  | i.a |  |  |
| COc1ccc2cc(S(=O)(=O)NC(=O)[C@@H](N)CC(C)C)ccc2c1 [Compound 5.17] | 920 nM |  | i.a | 230 to 232 °C | 2000 nM |  |  |  |  |
| CC(C)C[C@H](N)C(=O)NS(=O)(=O)c1cccc2ccncc12 [Compound 5.21] | 483 nM |  | i.a | 55 to 57 °C | 3420 nM |  |  |  |  |
| CC(C)C[C@H](N)C(=O)NS(=O)(=O)c1cccc2c1OCCC2 [Compound 5.25] | 149 nM |  | i.a | 165 °C (dec.) | 14100 nM |  |  |  |  |
| Cc1cc(-c2cccc(S(=O)(=O)NC(=O)[C@@H](N)CC3CC3)c2)nc(N)n1 [Compound 5.30] | 14000 nM | i.a | i.a | > 192 °C (dec.) |  |  |  |  |  |
| Cc1cc(-c2cccc(S(=O)(=O)NC(=O)[C@@H](N)C3CC3)c2)nc(N)n1 [Compound 5.33] |  | i.a | i.a | 158 °C (dec.) |  |  |  | 40%@50 |  |
| Cc1cc(-c2cccc(S(=O)(=O)NC(=O)[C@@H](N)CC(C)C)c2)nc(N)n1 [Compound 5.35, (S)-2-amino-N-((3-(2-amino-6-methylpyrimidin-4-yl)phenyl)sulfonyl)-4-methylpentanamide] | 14 nM |  | i.a. | 241 to 242 °C (dec.) | 4340 nM |  |  |  |  |
| COc1cc(-c2cccc(S(=O)(=O)NC(=O)[C@@H](N)CC(C)C)c2)nc(N)n1 [Compound 5.36] | 12 nM |  | i.a. | 87 to 88 °C (dec.) | 3000 nM |  |  |  |  |
| CC(C)C[C@H](N)C(=O)NS(=O)(=O)c1cccc(-c2ccnc(N)n2)c1 [Compound 5.37] |  |  | i.a. | 224 to 226 °C (dec.) | 2180 nM | 54 nM |  |  |  |
| CC(C)C[C@H](N)C(=O)NS(=O)(=O)c1cccc(-c2nc(N)nc3nc[nH]c23)c1 [Compound 5.38] | 84 nM |  | i.a. | 117 °C (dec.) | 1110 nM |  |  |  |  |
| Cc1cc(-c2cccc(S(=O)(=O)NC(=O)[C@@H](N)CC(C)C)c2)ncn1 [Compound 5.39] | 45 nM |  | i.a. | 246 °C | 2000 nM |  |  |  |  |
| CC[C@H](C)[C@H](N)C(=O)NS(=O)(=O)c1cccc(-c2cc(C)nc(N)n2)c1 [Compound 5.40] | 21800 nM | i.a. | i.a. | 97 °C |  |  |  |  |  |
| CC(C)C[C@H](N)C(=O)NS(=O)(=O)c1cccc(-c2cc(-c3ccccc3)nc(N)n2)c1 [Compound 5.41] | 220 nM |  | i.a. | 186 to 188 °C (dec.) | 3000 nM |  |  |  |  |
| CC(C)C[C@H](N)C(=O)NS(=O)(=O)c1cccc(-c2ccncc2)c1 [Compound 5.42] |  |  | i.a. | 151 °C (dec.) |  | 13 nM |  |  | 810 nM |
| CC(C)C[C@H](N)C(=O)NS(=O)(=O)c1cccc(-c2ccnc(N)c2)c1 [Compound 5.43] | 2 nM |  | i.a. | 141 °C (dec.) | 330 nM |  |  |  |  |
| CC(C)C[C@H](N)C(=O)NS(=O)(=O)c1cccc(-c2cccc(N)n2)c1 [Compound 5.44] | 6 nM |  | i.a. | 148 °C (dec.) | 1640 nM |  |  |  |  |
| CC(C)C[C@H](N)C(=O)NS(=O)(=O)c1cccc(-c2cc(N)nc(N)n2)c1 [Compound 5.45] | 20 nM |  | i.a. | 234 °C (dec.) | 720 nM |  |  |  |  |
| CC(C)C[C@H](N)C(=O)NS(=O)(=O)c1cccc(-c2ccnc(Cl)n2)c1 [Compound 5.49] | 64 nM |  | i.a. | 231 to 238 °C (dec.) | 6230 nM |  |  |  |  |
| CC(C)C[C@H](N)C(=O)NS(=O)(=O)c1cccc(-c2ccnc(O)n2)c1 [Compound 5.50] | 63 nM |  | i.a. | 191 to 221 °C (dec.) | 13900 nM |  |  |  |  |
